Legend:
[1] = Toxicity in treated mice (weight, blood cell counts, ALT, AST, creatinine); assay type: in vivo
Source text: Data are expressed as percent of control mice that received vehicle and assigned 100%.
Materials and Methods. Cell culture, vectors and reagents. Normal mature human neurons were obtained from ScienCell (Carlsbad, CA). Lines were routinely tested to confirm the absence of mycoplasma and authenticated by short tandem repeat profiling (ATCC). The myc-tagged TEAD (pRK5-Myc-TEAD1) and HA-tagged YAP1 (pCl-HA-YAP) vectors were used for mammalian expression and TEAD was subcloned into pGEX-2TK, while YAP was subcloned into pET-14b for bacterial expression and purification. DNA transfections were performed using Effectene transfection reagent according to the manufacturer (QIAGEN) and lentiviral transductions were performed as previously described (Rosenbluh J, et al. (2012) Cell 151: 1457-1473). Large-scale syntheses of NSC682769 was performed by New England Discovery Partners, Branford, CT. The other reagents including kits for ALT, AST and creatinine level determinations were from Sigma-Aldrich.
NSC682769 inhibits GBM tumor growth in xenografted mice. To examine the effects of NSC682769 in vivo, the ability of the compound to inhibit the growth of LN229 xenografted tumors implanted subcutaneously in SCID mice was tested. Following implantation, when tumors reached ˜200 mm^3, mice were randomized into treatment groups receiving vehicle, 5 mg/kg/d and 20 mg/kg/d of NSC682769. […]

[2] = system: YAP-TEAD transcriptional activity; test: HOP-flash TEAD binding site luciferase reporter; assay type: cell-based, human; settings: LN229 or GBM39 cells, 18 h
Experimental: (§1) Levels of total YAP were determined via ELISA. […] Immunoprecipitates were immunoblotted for the indicated proteins. […] Cells were treated with the indicated concentrations of inhibitor for 18 h and mRNA extracted for real time RT-PCR analyses. Measurements were performed in quadruplicate and means and+S.D. are shown. […] Cells were treated with (+) or without (−) NSC682769 (100 nM, 18 h) and harvested and separated into cytoplasmic and nuclear cellular fractions. Cytoplasmic versus nuclear material was subsequently immunoblotted for the indicated proteins. […] Values in top right corner of panels correspond to the percentage of nuclear localized YAP. Cells were grown on coverslips and treated with NSC682769. Cells were permeabilized and stained using primary antibody to YAP1 and FITC-conjugated secondary. Nuclei were stained with DAPI. Scale bar, 20 μm.
Surface plasmon resonance (SPR), ELISA, YAP-TEAD reporter activity, cellular fractionation, and immunofluorescence analyses. SPR experiments were carried out on a Nicoya OpenSPR™ instrument using immobilized YAP on a carboxyl-coated sensor. […] YAP-TEAD reporter activity was determined as previously described (Kim N G, Gumbiner B M (2015) J Cell Biol 210: 503-515). […] Luciferase activity was measured via a luciferase assay system (Promega). […] Cell lysis was monitored by trypan blue staining. […]

YAP localization = test: YAP cytoplasmic/nuclear localization (cell fractionation and immunofluorescence); assay type: cell-based, human; settings: 50 nM, 6 h
Experimental: as §1, with “Cells were treated with (+) or without (−) NSC682769 (100 nM, 18 h) and harvested and separated into cytoplasmic and nuclear cellular fractions.” left out
Surface plasmon resonance (SPR), ELISA, YAP-TEAD reporter activity, cellular fractionation, and immunofluorescence analyses. SPR experiments were carried out on a Nicoya OpenSPR™ instrument using immobilized YAP on a carboxyl-coated sensor. Binding was observed as the change in response units (RU) as analyte was injected at a flow rate of 10 μl/min at 25° C. TraceDrawer™ was used for kinetic analyses. The PathScan® total-YAP ELISA kit was obtained from Cell Signaling and used according to the manufacturer's instructions. YAP-TEAD reporter activity was determined as previously described (Kim N G, Gumbiner B M (2015) J Cell Biol 210: 503-515). HOP-flash contains multiple copies of wild-type TEAD-binding sites with a minimal promoter upstream of a luciferase reporter gene. Luciferase activity was measured via a luciferase assay system (Promega). Nuclear-cytoplasmic fractionation was performed according to Dignam et al. (Dignam J D, et al. (1983) Nucleic Acids Res 11: 1475-1489). Briefly, the buffers used were kept on ice and centrifugations were done at 4° C. with soft braking. After a single wash with PBS, cells were scraped with PBS (containing 1 mM DTT and 1× protease inhibitor) and harvested by centrifugation at 1000×g for 15 min. […] Cell lysis was monitored by trypan blue staining. […]

COc1ccc(-c2cc(-c3ccccc3)nc3c2CC(=O)Nc2ccccc2-3)cc1OC [NSC682769]
Overt toxicity or weight loss ([1]; 5 and 20 mg/kg/d): No overt short or long-term toxicity or weight loss
Blood cell counts, serum ALT, AST, creatinine ([1]; daily IP, 5 days, 5 or 20 mg/kg/d): neither blood cell counts nor serum alanine aminotransferase (ALT), aspartate aminotransferase (AST) or creatinine levels were affected
YAP-TEAD transcriptional activity (luciferase) [2]: markedly reduced
Relative amount of nuclear YAP (immunofluorescence) (YAP localization; GBM39 cells, untreated 53%): 19%
Relative amount of nuclear YAP (immunofluorescence) (YAP localization; LN229 cells, untreated 67%): 26%
Nuclear versus cytoplasmic YAP by cell fractionation (YAP localization; LN229 or GBM39 cells): reduction of nuclear YAP and a concomitant accumulation of cytoplasmic YAP

— patent US20240108634A1, “COMPOSITIONS AND METHODS FOR INHIBITING YAP” (The United States Government as represented by the …, priority 2021, published 2024)
